# Measured values: patent publication US12156893B2, “Oral composition comprising lactic acid bacteria for regulating immune responses and methods related thereto” (The Regents of the University of California, priority 2016, dated 2024)
# Tested on: NK cells
# Experiment: Production of cytokines, growth factors and chemokines by NK cells treated with bacterial strains (Bio-Plex 27-plex)
# Format: cell-based, human
# Parameters: unit not given here
# Method: Different strains of probiotic bacteria were tested for their ability to induce IFN-g as well as a number of important cytokines, chemokines and growth factors (Table 1). To assess the levels of each strain used in the combination we used an activation index established in the lab for the NK cells which consisted of the use of a specific ratio of several important cytokines and chemokines that prevented auto-immunity while enhancing significant activation of NK cells under pathologic conditions. Therefore, the strains were selected to: 1) provide regulated activation of NK cells when no activation of NK cells is desired; 2) when activated by cytokines and/or cross-linking of the important receptors which occurs during functional activation of NK cells in cancer is to induce maximal activation of NK cells; and 3) provide diversity for gut microflora. These criteria allow us to use bacteria to regulate the gut mucosal immunity in such a way that we will only increase NK activation when needed during infections or malignancies. In other words when there is no need for function of NK cells bacteria will regulate NK function to not induce inflammation; however, during need which occurs under the pathological conditions NK cells are triggered to function at the maximal levels. Such coordinated regulation of NK cell function should be effective in halting unwanted inflammation while providing effective and maximal immunity during disease.
# Written informed consents, approved by UCLA Institutional Review Board (IRB), were obtained from healthy blood donors, and all procedures were approved by the UCLA-IRB. Peripheral blood was separated using Ficoll-Hypaque centrifugation, after which the white, cloudy layer, containing peripheral blood mononuclear cells (PBMC), was harvested, washed and re-suspended in RPMI 1640 (Invitrogen by Life Technologies, CA) supplemented with 10% FBS and plated on plastic tissue culture dishes. After 1-2 hours of incubation, non-adherent, human peripheral blood lymphocytes (PBL) were collected. NK cells were negatively selected and isolated from PBLs using the EasySep® Human NK cell enrichment kit purchased from Stem Cell Technologies (Vancouver, BC, Canada). Isolated NK cells were stained with anti-CD16 antibody, to measure NK cell purity using flow cytometric analysis. The isolated NK cell population was greater than 90% purity. Purified NK cells were cultured in RPMI Medium 1640 supplemented with 10% FBS (Gemini Bio-Products, CA), 1% antibiotic antimycotic, 1% sodium pyruvate, and 1% MEM non-essential amino acids (Invitrogen, Life Technologies, CA).
# Purified NK cells from healthy donors were left untreated or treated with IL-2 (1000 units/ml) or the combination of anti-CD16 mAb (3 μg/ml) and IL-2 (1000 units/ml) in the presence or absence of bacterial strains at 1:5 ratio (NK cell: bacteria) for 12-18 hours. Afterwards, the levels of cytokines, growth factors and chemokines were determined using Bio-Plex Pro Human Cytokine 27-plex Assay Kit.
# [1] = Treatment NK (no activation), bacteria 1:5 NK cell:bacteria, 12-18 hours
# [2] = Treatment NK + IL-2 (1000 units/ml), bacteria 1:5, 12-18 hours
# [3] = Treatment NK + IL-2 + anti-CD16 mAb (3 μg/ml), bacteria 1:5, 12-18 hours
substance,measurement,setting,value
Lactobacillus acidophilus [L. acidophilus],Eotaxin,[1],16
same,G-CSF,[1],141
same,GM-CSF,[1],110
same,IFN-γ,[1],366
same,IL-1B,[1],819
same,IL-1ra,[1],181
same,IL-6,[1],10357
same,IL-8,[1],6879
same,IL-10,[1],62
same,IL-12p70,[1],299
same,IL-13,[1],5
same,IL-17,[1],63
same,IP-10,[1],77
same,MCP-1,[1],400
same,RANTES,[1],2553
same,TNF-α,[1],6858
same,Eotaxin,[2],21
same,G-CSF,[2],89
same,GM-CSF,[2],127
same,IFN-γ,[2],1329
same,IL-1B,[2],335
same,IL-1ra,[2],487
same,IL-6,[2],2095
same,IL-8,[2],1116
same,IL-10,[2],17
same,IL-12p70,[2],136
same,IL-13,[2],8
same,IL-17,[2],63
same,IP-10,[2],51
same,MCP-1,[2],112
same,RANTES,[2],2353
same,TNF-α,[2],1151
same,Eotaxin,[3],31
same,G-CSF,[3],102
same,GM-CSF,[3],199
same,IFN-γ,[3],2715
same,IL-1B,[3],654
same,IL-1ra,[3],493
same,IL-6,[3],3684
same,IL-8,[3],2004
same,IL-10,[3],24
same,IL-12p70,[3],155
same,IL-13,[3],23
same,IL-17,[3],73
same,IP-10,[3],69
same,MCP-1,[3],289
same,RANTES,[3],3999
same,TNF-α,[3],5663
Bifidobacterium infantis [B. infantis],Eotaxin,[1],18
same,G-CSF,[1],145
same,GM-CSF,[1],123
same,IFN-γ,[1],275
same,IL-1B,[1],249
same,IL-1ra,[1],179
same,IL-6,[1],6136
same,IL-8,[1],4265
same,IL-10,[1],55
same,IL-12p70,[1],66
same,IL-13,[1],1
same,IL-17,[1],56
same,IP-10,[1],57
same,MCP-1,[1],451
same,RANTES,[1],2234
same,TNF-α,[1],5728
same,Eotaxin,[2],19
same,G-CSF,[2],190
same,GM-CSF,[2],163
same,IFN-γ,[2],3073
same,IL-1B,[2],422
same,IL-1ra,[2],459
same,IL-6,[2],6618
same,IL-8,[2],5090
same,IL-10,[2],41
same,IL-12p70,[2],115
same,IL-13,[2],19
same,IL-17,[2],72
same,IP-10,[2],113
same,MCP-1,[2],382
same,RANTES,[2],3225
same,TNF-α,[2],5103
same,Eotaxin,[3],32
same,G-CSF,[3],151
same,GM-CSF,[3],178
same,IFN-γ,[3],1250
same,IL-1B,[3],365
same,IL-1ra,[3],434
same,IL-6,[3],3927
same,IL-8,[3],3557
same,IL-10,[3],34
same,IL-12p70,[3],47
same,IL-13,[3],22
same,IL-17,[3],65
same,IP-10,[3],88
same,MCP-1,[3],360
same,RANTES,[3],2646
same,TNF-α,[3],5287
Bifidobacterium longum [B. longum],Eotaxin,[1],32
same,G-CSF,[1],938
same,GM-CSF,[1],131
same,IFN-γ,[1],158
same,IL-1B,[1],813
same,IL-1ra,[1],312
same,IL-6,[1],60895
same,IL-8,[1],9507
same,IL-10,[1],298
same,IL-12p70,[1],42
same,IL-13,[1],9
same,IL-17,[1],74
same,IP-10,[1],38
same,MCP-1,[1],80
same,RANTES,[1],2325
same,TNF-α,[1],5880
same,Eotaxin,[2],33
same,G-CSF,[2],244
same,GM-CSF,[2],135
same,IFN-γ,[2],671
same,IL-1B,[2],408
same,IL-1ra,[2],472
same,IL-6,[2],7287
same,IL-8,[2],2195
same,IL-10,[2],52
same,IL-12p70,[2],47
same,IL-13,[2],11
same,IL-17,[2],73
same,IP-10,[2],46
same,MCP-1,[2],33
same,RANTES,[2],2189
same,TNF-α,[2],2896
same,Eotaxin,[3],28
same,G-CSF,[3],386
same,GM-CSF,[3],158
same,IFN-γ,[3],1282
same,IL-1B,[3],498
same,IL-1ra,[3],461
same,IL-6,[3],2916
same,IL-8,[3],2906
same,IL-10,[3],68
same,IL-12p70,[3],33
same,IL-13,[3],19
same,IL-17,[3],69
same,IP-10,[3],42
same,MCP-1,[3],75
same,RANTES,[3],1088
same,TNF-α,[3],4240
